This is an account of results in ChEMBL document CHEMBL1132781, “Structure-based design and synthesis of phosphinate isosteres of phosphotyrosine for incorporation in Grb2-SH2 domain inhibitors. Part 1” (Bioorg Med Chem Lett, 2000).

SMILES strings stand for the structures.

The experiment deals with Growth factor receptor-bound protein 2 (Homo sapiens, UniProt P62993). As to the kind of experiment: Inhibition of Grb2-SH2 domain binding to phospho-EGF receptor intracellular C-terminal domain. Type of experiment: cell-based.
Sequence of Growth factor receptor-bound protein 2 (P62993 whole entry, the tested form may be a part): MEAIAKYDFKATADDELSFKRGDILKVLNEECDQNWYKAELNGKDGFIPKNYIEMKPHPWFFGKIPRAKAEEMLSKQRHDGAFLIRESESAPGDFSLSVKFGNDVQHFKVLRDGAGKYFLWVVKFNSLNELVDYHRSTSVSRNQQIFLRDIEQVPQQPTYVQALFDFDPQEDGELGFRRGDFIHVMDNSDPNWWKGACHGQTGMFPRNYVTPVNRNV
As usually defined, the IC50 is the concentration that inhibits the measured activity by half. A lower IC50 goes with inhibition by little substance. In turn, `CC(=O)N[C@@H](Cc1ccc(CP(=O)(O)C(O)c2ccccc2)cc1)C(=O)NC1(C(=O)N[C@@H]2CCCC[C@@H]2C(N)=O)CCCCC1` (stereo partly specified) gave an IC50 of 530 nM.

For the compound `CC(=O)N[C@@H](Cc1ccc(CP(C)(=O)O)cc1)C(=O)NC1(C(=O)N[C@@H]2CCCC[C@@H]2C(N)=O)CCCCC1`, the IC50 turned out to be 25500 nM. In the case of `CC(=O)N[C@@H](Cc1ccc(CP(=O)(O)CCO)cc1)C(=O)NC1(C(=O)N[C@@H]2CCCC[C@@H]2C(N)=O)CCCCC1` it was 1600 nM; in that of `CC(=O)N[C@@H](Cc1ccc(CP(=O)(O)CO)cc1)C(=O)NC1(C(=O)N[C@@H]2CCCC[C@@H]2C(N)=O)CCCCC1`, 7600 nM; in that of `CC(=O)N[C@@H](Cc1ccc(CP(=O)(O)Cc2ccccc2)cc1)C(=O)NC1(C(=O)N[C@@H]2CCCC[C@@H]2C(N)=O)CCCCC1`, 1200 nM. Regarding `CC(=O)N[C@@H](Cc1ccc(CP(=O)(O)O)cc1)C(=O)NC1(C(=O)N[C@@H]2CCCC[C@@H]2C(N)=O)CCCCC1`, the IC50 was 700 nM.
